1 compound from patent publication US6087401A, “Cyclopentenones, process for preparing the same, and the use thereof” (Takara Shuzo Co., Ltd., priority 1996, dated 2000) can be followed below.

In one assay the test system is IMC. In words: life-prolonging effect, IMC. Type of assay: in vivo, female mice of CDF1 strain. The settings on record: intraperitoneal tumor.
For assay [1], the system named is cancer cells such as HL-60, MOLT-3, A-549, WI-38VA13, Hep G2, HCT 116, SW 480, WiDr, AGS and myeloma cells. In words: cell growth suppressing, anticancer and apoptosis-inducing action to cancer cells. It counts as cell-based, human.
Assay [2] has as its system Salmonella typhimurium LT-2 (ATCC 27106). Kind of assay: growth turbidity, microorganism (14). Type of assay: cell-based. As to conditions: 8 h, control 273. From the text: They were testing microorganism (13): Escherichia coli HB101 (ATCC 33694); testing microorganism (14): Salmonella typhimurium LT-2 (ATCC 27106); testing microorganism (15): Pseudomonas aeruginosa (IFO 3080); testing microorganism (16): Staphylococcus aureus 3A (NCTC 8319); testing microorganism (17): Bacillus subtilis (IFO 3034); and testing microorganism (18): Streptococcus mutans (GS5; stored at National Institute of Health).
The testing microorganisms were subjected to a seed culture overnight in an L-broth (1% tryptone, 0.5% yeast extract and […]; pH 7.0). The seed culture (5 μl) was inoculated to a medium to which 25-200 μg/ml of cyclopentenone was added to 5 ml of L-both and also to a medium to which nothing was added and a shake incubation was conducted at 37° C. to measure the growth. At the initiation of the incubation and also at eight hours thereafter, turbidity of the culture was measured using a Fuji Digital Turbidimeter (sold from Fuji Kogyo KK; manufactured by Akiyama Denki Seisakusho) under the condition that the adjusted scale was 82.3 and the growth of the tested microorganism was measured from the value (growth turbidity) obtained by deducting the turbidity at the initiation of incubation from that after eight hours. Incidentally, in the case of the testing microorganism (18), a brain heart infusion was used instead of L-broth.

In assay [3] the test system is Candida albicans TIMM 0136. Kind of assay: antimicrobial activity to fungi. It counts as cell-based. The settings on record: high concentrations.
Assay [4] concerns Vibrio parahaemolyticus 4387-61 and Vibrio parahaemolyticus T4144-1. Kind of assay: antibacterial and bactericidal action to Vibrio. It counts as cell-based. The protocol: (1) Vibrio parahaemolyticus 4387-61 or Vibrio parahaemolyticus T4144-1 (both stored at National Institute of Hygienic Sciences) was inoculated to make 10^6 cells/ml to a trypto-soya bouillon medium (manufactured by Nissui) containing […], 3.13 or 1.56 μg/ml of the cyclopentenone and a stationary incubation was conducted at 37° C. for 24 hours.
The culture (50 μl) where no growth of the microorganism was noted was spread on 20 ml of a trypto-soya bouillon agar medium containing no cyclopentenone and incubation was conducted at 37° C. for 24 hours. The result was that, in any of the strains, no growth of microorganism was noted on the agar medium on which a fraction (to which 50 μg/ml or more cyclopentenone was added) was spread.

Values after ≈ are worked out from the molar mass of the structure shown.

Turning to `O=C1C=CC(O)C1O` (stereo not drawn) [the cyclopentenone, 4,5-dihydroxy-2-cyclopenten-1-one], the “increase in life span” value with IMC amounted to 188%. This compound also registered a mean survival days with IMC (control 10.8 days) of 20.3 days. The “apoptosis-inducing action to cancer cells” value in assay [1] is “apoptosis-inducing action”. In addition, the “cell growth suppressing action and anticancer action” value in assay [1] is “cell growth suppressing action and anticancer action”. The “Growth Turbidity” value in assay [2] (100 μg/ml) and in assay [2] (200 μg/ml) was 0 in each case. For the same compound, the antimicrobial activity entry in assay [3] is recorded as “antimicrobial activity at high concentrations”. Moreover, the MIC in assay [4] (37° C., 24 hours, both strains, read-out: concentration showing antibacterial action (no growth)) was determined as 12.5 µg/mL (≈ 110 µM). Also, the MBC in assay [4] (24 h, read-out: concentration showing bactericidal action) is 50 µg/mL (≈ 438 µM).
